Results: US7951403B2, “Method of making pharmaceutical multiparticulates” (Pfizer Inc., priority 2003, dated 2011)

Assay: Azithromycin dihydrate crystallinity in molten carrier mixtures with varying water, by PXRD
Type: physicochemical
Experimental: Another way to determine the activity of volatile species in crystalline drug at the processing conditions is by measuring the change in the crystalline state of the drug as a function of the amount of volatile species present in the molten mixture. A series of blends of the crystalline drug, the carrier, and varying amounts of volatile species are prepared and placed into sealed containers. The containers are then heated to the processing temperature used to form the multiparticulates and held at this temperature for a period of time, such as 90 minutes. During this time, a sample of the container's atmosphere, i.e., the container's “headspace,” can be taken and the partial pressure of volatile species in the headspace can be measured using standard techniques, such as by gas chromatography. The containers are then cooled and the concentration of the desired crystalline form of the drug in each sample can be determined using standard techniques, as described below. The concentration of the desired crystalline form of the drug in the sample is then plotted versus the amount of volatile species included in the blend or the concentration of volatile species present in the headspace. […] The amount of the desired crystalline form of the drug in the samples and in multiparticulates can be determined using Powder X-Ray Diffraction (PXRD) analysis. In an exemplary procedure, PXRD analysis may be performed on a Bruker AXS D8 Advance diffractometer. In this analysis, samples of about 500 mg are packed in Lucite sample cups and the sample surface smoothed using a glass microscope slide to provide a consistently smooth sample surface that is level with the top of the sample cup. Samples are spun in the φ plane at a rate of 30 rpm to minimize crystal orientation effects. The X-ray source (S/B KCuα, λ=1.54 Å) is operated at a voltage of 45 kV and a current of 40 mA. Data for each sample are collected over a period of about 20 to 60 minutes in continuous detector scan mode at a scan speed of about 1 to 15 seconds/step and a step size of 0.02°/step. Diffractograms are collected over the 2θ range of 4° to 30°. The crystallinity of the test sample is determined by comparison with two or more calibration standards consisting of physical mixtures of crystalline drug and carrier. Each physical mixture is blended together 15 minutes on a Turbula mixer. Using the instrument software, the area under the diffractogram curve is integrated over the 2θ range using a linear baseline. This integration range includes as many drug-specific peaks as possible while excluding carrier-related peaks. A linear calibration curve of percent crystalline drug versus the area under the diffractogram curve is generated from the calibration standards. The crystallinity of the test sample is then determined using these calibration results and the area under the curve for the test sample. Results are reported as a mean percent drug crystallinity by crystal mass. The amount of water required to maintain the dihydrate form of azithromycin while forming multiparticulates by a melt-congeal process was determined as follows. The composition of the multiparticulates was 50 wt % azithromycin dihydrate, 46 wt % of the matrix excipient COMPRITOL 888 ATO (a mixture of 13 to 21 wt % glyceryl mono-behenate, 40 to 60 wt % glyceryl di-behenate, and about 35 wt % glyceryl tri-behenate from Gattefossé Corporation of Paramus, N.J.), and 4 wt % of the poloxamer dissolution enhancer PLURONIC F127 (polyoxyethylene-polyoxypropylene block copolymer, from BASF Corporation of Mt. Olive, N.J.). Mixtures of these materials containing varying amounts of water were prepared and analyzed by PXRD. To form each mixture, 100 g azithromycin dihydrate, 92 g of the COMPRITOL 888 ATO, and 8 g of the PLURONIC F127 were added to a water-jacketed stainless steel sealed vessel. Various amounts of water were added to each mixture to obtain varying water concentrations. […]

Q: For CC[C@H]1OC(=O)[C@H](C)[C@@H](O[C@H]2C[C@@](C)(OC)[C@@H](O)[C@H](C)O2)[C@H](C)[C@@H](O[C@@H]2O[C@H](C)C[C@H](N(C)C)[C@H]2O)[C@](C)(O)C[C@@H](C)CN(C)[C@H](C)[C@@H](O)[C@]1(C)O [Azithromycin Dihydrate, 9a-aza-9a-methyl-9-deoxo-9a-homoerythromycin A], which “Azithromycin Dihydrate Crystallinity” value (Water in melt sample 0.35 wt %, same mixture, 90 min at 90° C.) is on record?
A: The value was 57 wt %.

Q: And the “Azithromycin Dihydrate Crystallinity” value (Water in melt sample 0.45 wt %, same mixture, 90 min at 90° C.)?
A: The value was 68 wt %.

Q: What about the “Azithromycin Dihydrate Crystallinity” value (Water in melt sample 1.88 wt %, same mixture, 90 min at 90° C.) of the same compound?
A: Its value is 91 wt %.

Q: What about the “Azithromycin Dihydrate Crystallinity” value (Water in melt sample 2.22 wt %, same mixture, 90 min at 90° C.) of the same compound?
A: The value was 93 wt %.

Q: What about the “Azithromycin Dihydrate Crystallinity” value (Water in melt sample 3.08 wt %, 50/46/4 azithromycin dihydrate/COMPRITOL 888 ATO/PLURONIC F127, stirred 90 min at 90° C., sealed vessel) of the same compound?
A: Its value is 95 wt %.

Q: What about the “water needed in the mixtures to maintain high levels of azithromycin dihydrate crystallinity in the melt” value (melt at 90° C., COMPRITOL 888 ATO/PLURONIC F127 carrier) of the same compound?
A: The value was “at least 2.2 wt %”.
